Measurements reported in article PMC4577212, “X-Ray Structure and Mutagenesis Studies of the N-Isopropylammelide Isopropylaminohydrolase, AtzC” (PLoS ONE, 2015).

Target: T1, AtzC (N-isopropylammelide isopropylaminohydrolase) (Pseudomonas sp. ADP, UniProt O52063)
T1 construct: full length, N-terminal His-tag (pETCC2, from pET14b), expressed in E. coli BL21(DE3); tag cut with thrombin for crystals; homotetramer ~210 kDa; Zn enzyme
T1 sequence (O52063 1-403): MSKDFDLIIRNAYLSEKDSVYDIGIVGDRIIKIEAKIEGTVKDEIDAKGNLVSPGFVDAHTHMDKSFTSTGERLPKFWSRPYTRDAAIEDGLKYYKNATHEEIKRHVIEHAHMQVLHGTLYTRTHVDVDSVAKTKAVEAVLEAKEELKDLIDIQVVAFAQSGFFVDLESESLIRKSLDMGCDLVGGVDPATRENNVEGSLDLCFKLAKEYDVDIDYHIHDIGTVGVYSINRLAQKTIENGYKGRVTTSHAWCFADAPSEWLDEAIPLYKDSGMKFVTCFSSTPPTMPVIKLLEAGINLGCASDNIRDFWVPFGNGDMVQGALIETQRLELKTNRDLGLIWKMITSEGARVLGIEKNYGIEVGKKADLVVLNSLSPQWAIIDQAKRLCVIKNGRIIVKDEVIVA
Assay: X-ray crystal structure, […] Å
Format: binding
Details: crystals from 2.4 M sodium malonate pH 7; active site; tag cut with thrombin

O=C(O)CC(=O)O [malonic acid]
X-ray crystal structure, 1.84 Å: The malonate (a poor inhibitor of AtzC, Figure E in S1 File) adopts a planar conformation
